Test results reported in ChEMBL document CHEMBL3886392, “Substituted imidazopyrazines” (2015).

Molecular target: T1, Dual specificity protein kinase TTK (Homo sapiens, UniProt P33981)
T1 sequence (P33981 whole entry): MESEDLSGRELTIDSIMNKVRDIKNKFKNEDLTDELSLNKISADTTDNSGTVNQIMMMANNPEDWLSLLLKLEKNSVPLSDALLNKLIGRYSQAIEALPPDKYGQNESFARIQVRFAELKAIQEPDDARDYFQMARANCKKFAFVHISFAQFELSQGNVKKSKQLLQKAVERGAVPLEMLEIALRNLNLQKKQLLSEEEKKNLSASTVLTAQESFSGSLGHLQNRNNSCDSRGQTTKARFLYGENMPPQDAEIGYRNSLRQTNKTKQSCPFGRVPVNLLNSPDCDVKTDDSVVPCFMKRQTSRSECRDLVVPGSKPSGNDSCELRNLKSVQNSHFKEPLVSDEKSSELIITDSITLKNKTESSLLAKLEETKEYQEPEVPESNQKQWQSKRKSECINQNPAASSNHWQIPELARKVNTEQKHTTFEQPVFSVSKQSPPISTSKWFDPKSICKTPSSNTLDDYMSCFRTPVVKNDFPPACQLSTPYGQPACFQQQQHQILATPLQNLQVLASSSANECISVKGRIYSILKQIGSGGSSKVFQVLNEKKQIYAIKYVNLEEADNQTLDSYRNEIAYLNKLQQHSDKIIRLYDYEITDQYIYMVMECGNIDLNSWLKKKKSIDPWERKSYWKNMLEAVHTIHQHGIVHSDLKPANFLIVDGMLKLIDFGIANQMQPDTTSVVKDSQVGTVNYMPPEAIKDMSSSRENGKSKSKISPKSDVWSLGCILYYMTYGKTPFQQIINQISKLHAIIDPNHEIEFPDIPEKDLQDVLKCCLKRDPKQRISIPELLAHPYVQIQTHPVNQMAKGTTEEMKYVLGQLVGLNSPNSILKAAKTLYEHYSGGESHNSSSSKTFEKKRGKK

Structure (SMILES): C#Cc1cn2c(-c3ccc(C(=O)NC4C[C@@H]4F)c(C)c3)cnc2c(NCCC(F)(F)F)n1 (stereo in doubt)
- IC50: 36 nM
